Measurements published in patent publication US20080312140A1, “Compositions and Methods for Preventing or Treating Hiv Infection” (priority 2005, published 2008).
Where two headings read alike, the source gives them in different places. No end group written: not given here.

Tested on: infection of CD4+ human cells (CD4 expressing Hela P4 cells) by HIV-1
Assay type: cell-based
Details: for IC50: FIG. 3; for relative infection inhibition activity within the peptide set: peptides assayed at 100 μg/ml, FIG. 2 / FIG. 6
Procedure: Biological Activity Results of C2 peptide analogs Cell Infection Inhibition Assay The assay consisted of CD4 expressing Hela P4 cells containing the […] reporter gene placed downstream the HIV-LTR promotor. These cells, were seeded 24 hours prior to viral infection at a density of 5×10^5 […] in 24 well culture plates (TPP model by Beyneix). 50 μL of virus solution prepared from CEM infected cells' supernatant, were incubated for 1 hour with the assayed peptides at the required concentrations, at 4° C. 10 μg of anti CD4 monoclonal antibodies 13B8.2 or Leu3A were used as control. After incubation the virus solution was diluted to a total volume of 1 ml and was added to the Hela P4 cells. The cells were incubated at these conditions for 3 days after which their infection rate was assayed according to the […] activity in the cells extract.
The cells were washed well, harvested and disintegrated in a buffer containing 60 mM Na2HPO4, 40 mM NaH2PO4, 10 mM KCl, 1 mM MgSO4, 50 mM β-mercaptoethanol, 2.5 mM EDTA, 0.125% NP40, 0.125% triton, 20% glycerol, 0.2 mM PMSF and 100 U/ml approtinin. The cells extract was cleaned by centrifuge at 4° C. for 15 min at 13,000 rpm. β-galactosidase activity was determined by incubation of 150 μL of total cell extract at 37° C. for 2 hours in the presence of 6 mM ONPG (O-Nitrophenyl-β-D-galactopyranoside) in a buffer containing 80 mM Na2HPO4, 1 mM β-mercaptoethanol and 10 mMMgCl2, followed by absorption measurement at 410 nm. The β-galactosidase activity was normalized according to the total protein quantity in the assay.
This figure includes, for comparison, the inhibition of the lead peptide C2-1, as determined in the cell infection inhibition assay.

[1] = average of peptides C2-2 and C2-3, Hela P4 cells, read-out: average IC50 value

Q: For `N=C(N)NCCC[C@@H]1NC(=O)CCC(=O)N[C@@H](CCC(N)=O)C(=O)NCC(=O)N[C@@H](CO)C(=O)N[C@@H](Cc2ccccc2)C(=O)N(CC(N)=O)CCNC1=O` [Peptide C2-1], which IC50 (CD4 expressing Hela P4 cells, several concentrations, read-out: IC50 (infection inhibition)) is on record?
A: 33 µM

Q: And the “relative infection inhibition activity within the peptide set” value?
A: most active

Q: Which results are given for `N=C(N)NCCC[C@@H]1NC(=O)CCCC(=O)N[C@@H](CCC(N)=O)C(=O)NCC(=O)N[C@@H](CO)C(=O)N[C@@H](Cc2ccccc2)C(=O)N(CC(N)=O)CCNC1=O` [Peptide C2-2]?
A: IC50 [1]: 81 ± 2 µM; relative infection inhibition activity within the peptide set: most active

Q: Which IC50 [1] does the source give for `N=C(N)NCCC[C@@H]1NC(=O)CCCCC(=O)N[C@@H](CCC(N)=O)C(=O)NCC(=O)N[C@@H](CO)C(=O)N[C@@H](Cc2ccccc2)C(=O)N(CC(N)=O)CCNC1=O` [Peptide C2-3] here?
A: 81 ± 2 µM

Q: What about the “relative infection inhibition activity within the peptide set” value of the same compound?
A: most active

Q: How did the inhibition of infection (C3 peptides, FIG. 6: assayed at 100 μg/ml, mean of 3 assays, text: C3-25 at 100 μM) turn out when “C3-19: backbone cyclic C3 peptide of Scheme 1 (SEQ ID NO:7) (RQGSGF; also: backbone cyclic) [Peptide C3-19]” was run?
A: 64±12%
